# Measurements taken from patent publication US8715745B2 (priority 2009, dated 2014).
# Key:
# [1] = tested on: Phytophthora infestans; assay type: in vivo, Phytophthora infestans on tomato plant; conditions: 50 ppm hydrazone with 50 μM CuCl2.2H2O, applied 24 h before inoculation, assessed 7 days after inoculation, tomato
# [2] = tested on: Leptosphaeria nodorum (LEPTNO); experiment: In vitro fungitoxicity (growth inhibition) against Leptosphaeria nodorum in copper-minus and copper-plus medium; assay type: cell-based; conditions: 0.05 μg/mL, 72 h
# Experimental: In vitro fungitoxicity assays against Leptosphaeria nodorum (LEPTNO) were conducted using the liquid growth medium described by Coursen and Sisler (American Journal of Botany 1960, 47, 541-549) except that copper micronutrient, normally included as CuSO4, was omitted. The medium, termed “copper-minus”, was prepared by dissolving 10 g glucose, 1.5 g K2HPO4, 2 g KH2PO4 and 1 g (NH4)2SO4 in 1 liter of deionized water and treating the solution with 0.5 g Chelex 100 resin (Bio-Rad Analytical grade, 50-100 mesh, sodium form, cat#142-2822) by stirring at room temperature for 1 h. MgSO4.7H2O (0.5 g) was added, and stirring was continued for a further hour. Trace elements (minus CuSO4), and vitamins described by Coursen and Sisler were added from concentrated stock solutions and the entire medium was sterilized by filtration. Medium containing copper was prepared by adding CuCl2.2H2O to the copper-minus medium at 20 μM. […]
# LEPTNO was grown on potato dextrose agar in 9 cm diameter petri dishes for 7 days. […] Microtiter plates were inoculated with 100 μL of this spore suspension and the plates incubated at 25° C. for 72 h before assessing fungal growth by measuring light scattering in a NepheloStar plate reader. Growth inhibition was determined by comparing growth in the presence of test compound with growth in control wells lacking test compound. […]
# [3] = tested on: Ustilago maydis; experiment: In vitro fungitoxicity (growth inhibition) against Ustilago maydis in copper-minus and copper-plus medium; assay type: cell-based; conditions: for % Inhn. Plus copper Predicted: 1 μg/mL, Colby formula
# Experimental: (§1) In vitro fungitoxicity assays against Ustilago maydis were conducted using the copper-minus medium described in Example 5. Medium containing copper was prepared by adding CuCl2.2H2O to the copper-minus medium at 20 μM. Test compounds were dissolved in dimethylsulfoxide (DMSO) at 200 μg/mL and 1 μL aliquots were added to two wells of flat-bottomed 96-well microtiter plates. Copper-minus medium (100 μL) was added to one of the wells and copper-plus medium to the second well. Control wells, included for each medium, received 1 uL DMSO and 100 μL of medium.
# Ustilago maydis was grown in 50 mL potato dextrose broth with shaking at 25° C. for 24 h. A 10 mL aliquot of the culture was centrifuged at 2000 rpm for 2 min, resuspended in 10 mL of sterile Chelex 100-treated water, and centrifuged again. The spores were resuspended in copper-minus medium, and the suspension adjusted to a concentration of 1×10^5 spores per mL. Microtiter plate wells containing test compound of DMSO (control) as described above were inoculated with 100 μL of this spore suspension and the plates incubated at 25° C. for 48 h before assessing fungal growth by measuring light scattering in a NepheloStar plate reader. Growth inhibition was determined by comparing growth in the presence of test compound with growth in control wells lacking test compound.
# Results for growth inhibition by test compounds at 1 μg/mL in copper-plus medium (“% Inhn Plus Copper Observed”) were compared with predicted results (“% Inhn Plus Copper Predicted”) that were calculated using the formula set forth by S. R. Colby in Weeds 1967, 15, 20-22 based on results obtained for the same compounds in copper-minus medium (“% Inhn Minus Copper Observed”) and the inhibition attributed to copper chloride alone, as determined by comparing growth in copper-minus and copper-plus media without any test compound. Results illustrate that hydrazones and copper produce a synergistic fungitoxic effect towards Ustilago maydis.
# [4] = tested on: Phytophthora capsici; experiment: In vitro fungitoxicity (growth inhibition) against Phytophthora capsici in copper-minus AS and copper-plus AS medium; assay type: cell-based; conditions: for % Inhn Plus copper Predicted: 0.050 μg/mL, Colby formula
# Experimental: In vitro fungitoxicity assays against Phytophthora capsici were conducted using the asparagine-sucrose (AS) medium described in Canadian Journal of Microbiology 1961, 7, 15-25, except that copper micronutrient, normally included as CuSO4, was omitted. The medium, termed “copper-minus AS”, was prepared by dissolving 2 g asparagine, 0.43 g KH2PO4, 0.3 g K2HPO4, 0.4 mL of a 0.5 mg/mL thiamine-HCl solution and 15 g sucrose in 1 liter of deionized water and treating the solution with 0.5 g Chelex 100 resin (Bio-Rad Analytical grade, 50-100 mesh, sodium form, cat#142-2822) by stirring at room temperature for 1 h. The pH was adjusted to 6.4, then MgSO4.7H2O (100 μg/mL), FeSO4.7H2O (1 μg/mL), CaCl2 (50 μg/mL), ZnSO4.7H2O (1 μg/mL), NaMoO4.2H2O (0.2 μg/mL) and MnCl2.4H2O (0.2 μg/mL) were added and the entire medium was sterilized by filtration. “Copper-plus AS” medium was prepared by adding CuCl2.2H2O to the copper-minus AS medium at 100 μM. Test compounds were dissolved in DMSO then dilutions in copper-minus AS and copper-plus AS media were prepared as 100 μL aliquots in flat-bottomed 96-well microtiter plates.
# Phytophthora capsici was grown on petri plates, 9 cm in diameter, containing 15 mL V-8 agar, pH 7.0, containing 200 mL V-8 juice, 4 g CaCO3, and 20 g agar per liter. Plates were inoculated with 7-mm plugs from a 1-week old culture, incubated at 25° C. in the dark for 3 days, and then placed under fluorescent lights for 4 days to induce sporulation. Zoospore release from sporangia was induced by adding 15 mL of sterile deionized water (which had been treated with Chelex 100 resin using 0.5 g resin per liter of water by stirring at room temperature for 1 h) to each plate, and incubating for 10 min at 25° C. followed by 20 min at 4° C. The plates were returned to 25° C. for 10 min and the aqueous suspension of released zoospores was recovered. The zoospore suspension was adjusted to 5×10^4 spores/mL by dilution into Chelex 100-treated water. Microtiter plates were inoculated with 100 μL of spore suspension and incubated at 25° C. for 48 h before assessing fungal growth by measuring light scattering in a NepheloStar plate reader. Growth inhibition was determined by comparing growth in the presence of test compound with growth in control wells lacking test compound.
# Results for growth inhibition by test compounds in copper-plus AS medium (“% Inhn Plus Copper Observed”) were compared with predicted values (“% Inhn Plus Copper Predicted”) that were calculated using the formula set forth by S. R. Colby in Weeds (1967), 15, 20-22 based on results obtained for the same compounds in copper-minus AS medium (“% Inhn Minus Copper Observed”) and the inhibition attributed to copper chloride alone, as determined by comparing growth in copper-minus AS and copper-plus AS media without any test compound across experiments. Results illustrate that hydrazones and copper produce a synergistic fungitoxic effect towards Phytophthora capsici.
# [5] = tested on: Septoria tritici isolate USA-184; experiment: In vitro fungitoxicity (growth inhibition) against Septoria tritici in copper-minus and copper-plus medium; assay type: cell-based; conditions: CuCl2 1 μM without test compound
# Experimental: as §1, with “Septoria tritici” for “Ustilago maydis”, “2” for “20”, “10” for “200”
# Septoria tritici isolate USA-184 was grown on potato dextrose agar at 18° C. under black lights for 3 days. A loopful of spores was transferred from the culture to a 15 mL tube containing 5 mL of sterile Chelex-treated water. The spores were centrifuged at 2000 rpm for 2 min, resuspended in 10 mL water, and centrifuged again. […] Microtiter plate wells containing test compound of DMSO (control) as described above were inoculated with 100 μL of this spore suspension and the plates incubated at 25° C. for 90 h before assessing fungal growth by measuring light scattering in a NepheloStar plate reader. Growth inhibition was determined by comparing growth in the presence of test compound with growth in control wells lacking test compound. […]
# [6] = tested on: Staphylococcus aureus, Escherichia coli, Aspergillus niger and A. flavus; conditions: literature report, Proceedings of the National Academy of Sciences, India 1991; cited from earlier work
compound,measurement,setting,value
O=C(N/N=C/c1cc(Cl)c(Cl)cc1O)c1ccccc1 [Compound 5],TLB % Control,[1],66.1%
same,LEPTNO % Inhn. Plus Copper Observed,"[2]; copper-plus medium (CuCl2, 10 μM)",97.8%
same,inhibition of growth at 0.05 µg/mL,"[2]; Parastagonospora nodorum, copper-minus medium, read-out: LEPTNO % Inhn. Minus Copper Observed",0.1%
same,melting point,,206 to 208 °C
O=C(N/N=C/c1cccc(Cl)c1O)c1cccc(Cl)c1 [Compound 58],% Inhn. Plus copper Predicted,[3],42.1%
same,% Inhn Plus copper Predicted,[4],13.2%
O=C(N/N=C/c1c(Cl)ccc(Cl)c1O)c1cccc(Cl)c1 [Compound 25],% Inhn. Plus copper Predicted,[3],14.7%
same,% Inhn Plus copper Predicted,[4],4.5%
"O.O.[Cl][Cu][Cl] [CuCl2, CuCl2.2H2O, reference compound]","% Inhn., copper chloride alone",[3]; CuCl2 10 μM without test compound,11.9%
same,"% Inhn, copper chloride alone","[4]; CuCl2 50 uM without test compound, across experiments",4.5 ± 7.9%
same,"% Inhibition, copper chloride alone",[5],0%
same,"% Inhibition, copper chloride alone",[5]; listed as copper chloride,no effect on growth
Cc1ccc(C(=O)N/N=C/c2ccc(Cl)c(Cl)c2O)c(O)c1 [Compound 20],% Inhn. Plus copper Predicted,[3],69.6%
same,% Inhn Plus copper Predicted,[4],4.5%
O=C(NN=Cc1ccccc1O)c1ccccc1O [o-hydroxybenzaldehyde-N-salicyloylhydrazone],antimicrobial activity,[6],Antimicrobial activity has been reported
O=C(N/N=C/c1c(O)cccc1Cl)c1ccc([N+](=O)[O-])cc1 [Compound 50],% Inhn. Plus copper Predicted,[3],20.4%
same,% Inhn Plus copper Predicted,[4],5.1%
